# Data from patent US20210198269A1, “INHIBITORS OF GLUCOSE TRANSPORTERS (GLUTs)” (LEAD DISCOVERY CENTER GMBH, priority 2018, published 2021).
# Assays:
# Format in all cases: cell-based
# GLUT1 = molecular target: T1, GLUT1 (Homo sapiens, UniProt P11166); assay: GLUT1 transporter activity assay (2-DG uptake) in DLD1 cells; conditions: DLD1 cell line; read-out: GLUT1 inhibitory activity (IC50)
# T1 construct: host or cells: DLD-1 (DLD1) cells
# T1 sequence (P11166 1-492): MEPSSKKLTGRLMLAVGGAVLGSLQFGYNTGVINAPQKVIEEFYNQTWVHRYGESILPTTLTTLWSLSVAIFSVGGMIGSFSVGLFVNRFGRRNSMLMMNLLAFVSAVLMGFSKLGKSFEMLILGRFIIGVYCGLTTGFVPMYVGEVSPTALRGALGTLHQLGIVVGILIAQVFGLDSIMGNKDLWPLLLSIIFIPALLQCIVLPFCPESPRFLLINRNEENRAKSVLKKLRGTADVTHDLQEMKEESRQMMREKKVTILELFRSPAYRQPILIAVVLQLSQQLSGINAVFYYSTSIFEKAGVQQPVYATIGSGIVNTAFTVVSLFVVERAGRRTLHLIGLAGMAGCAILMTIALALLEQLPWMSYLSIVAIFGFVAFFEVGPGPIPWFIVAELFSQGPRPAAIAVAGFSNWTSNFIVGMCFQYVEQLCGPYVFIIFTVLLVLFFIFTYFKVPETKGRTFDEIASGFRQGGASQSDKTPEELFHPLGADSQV
# Description: (§1) GLUT 1, 2, 3 and 4 Transporter Activity Assays
# (§2) Assays were based on the specificity assays reported by Kapoor et al., Proceedings of the National Academy of Sciences 2016, 113 (17) 4711-4716. For GLUT1, GLUT2, GLUT3 and GLUT4 specificity testing DLD1, CHO-hGLUT2, DLD-1-GLUT1−/− and CHO-hGLUT4 cell lines were used.
# (§3) Assay protocols for 2-deoxy-Glucose (2-DG) Uptake Assay with DLD1 or DLD1-Glut1(−/−) cells or 7,000 CHOK1-SLC2A4 cells lines:
# (§4) 14,000 DLD1 or DLD1-Glut1(−/−) cells or 7,000 CHOK1-SLC2A4 cells were seeded in black, clear bottom 384-well plates in glucose- and phenolred-free RPMI1640 medium supplemented with 1% FCS and 2 mM L-glutamine and allowed to attach overnight. Next day, cells were washed and incubated with compounds or DMSO and 1 mM 2-DG in glucose- and phenolred-free RPMI1640 medium for 30 min. Cells were then washed and lysed in 0.06 M HCl and 1% CHAPS for 15 min at 65° C. The amount of 2-DG in the lysate was determined by means of enzyme-coupled assay. For this 16 U/mL glucose-6-phosphate dehydrogenase, 0.2 U/mL diaphorase, 0.1 mM NADP^+ and 10 μM resazurin were added to the lysates. Resorufin fluorescence was determined as a measure of 2-DG uptake at ex/em 535/590 nm with a Victor Multilabel plate reader (Perkin Elmer). Blank values were subtracted from all readings and values were normalized to the DMSO control.
# GLUT3 = molecular target: T2, GLUT3 (Homo sapiens, UniProt P11169); assay: GLUT3 transporter activity assay (2-DG uptake) in DLD-1-GLUT1-/- cells; conditions: DLD-1-GLUT1-/- cell line; read-out: GLUT3 inhibitory activity (IC50)
# T2 construct: host or cells: DLD-1-GLUT1(-/-) cells
# T2 sequence (P11169 1-496): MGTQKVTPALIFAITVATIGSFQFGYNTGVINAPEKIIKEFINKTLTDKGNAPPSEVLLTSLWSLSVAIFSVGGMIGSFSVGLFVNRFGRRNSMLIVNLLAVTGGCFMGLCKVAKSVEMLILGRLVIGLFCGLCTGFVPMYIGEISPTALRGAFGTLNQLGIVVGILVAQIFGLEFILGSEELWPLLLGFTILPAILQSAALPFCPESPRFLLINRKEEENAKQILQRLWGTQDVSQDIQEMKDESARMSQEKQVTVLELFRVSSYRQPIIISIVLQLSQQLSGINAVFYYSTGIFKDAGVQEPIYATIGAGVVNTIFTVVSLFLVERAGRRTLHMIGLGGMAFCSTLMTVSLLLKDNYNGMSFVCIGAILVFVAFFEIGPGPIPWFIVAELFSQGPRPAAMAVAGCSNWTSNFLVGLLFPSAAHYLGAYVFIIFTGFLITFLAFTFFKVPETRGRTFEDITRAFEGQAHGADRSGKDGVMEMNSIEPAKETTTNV
# Description: as §1, §2, §3, §4
# GLUT4 = molecular target: T3, GLUT4 (Homo sapiens, UniProt P14672); assay: GLUT4 transporter activity assay (2-DG uptake) in CHO-hGLUT4 cells; conditions: CHO-hGLUT4 cell line; read-out: GLUT4 inhibitory activity (IC50)
# T3 sequence (P14672 1-509): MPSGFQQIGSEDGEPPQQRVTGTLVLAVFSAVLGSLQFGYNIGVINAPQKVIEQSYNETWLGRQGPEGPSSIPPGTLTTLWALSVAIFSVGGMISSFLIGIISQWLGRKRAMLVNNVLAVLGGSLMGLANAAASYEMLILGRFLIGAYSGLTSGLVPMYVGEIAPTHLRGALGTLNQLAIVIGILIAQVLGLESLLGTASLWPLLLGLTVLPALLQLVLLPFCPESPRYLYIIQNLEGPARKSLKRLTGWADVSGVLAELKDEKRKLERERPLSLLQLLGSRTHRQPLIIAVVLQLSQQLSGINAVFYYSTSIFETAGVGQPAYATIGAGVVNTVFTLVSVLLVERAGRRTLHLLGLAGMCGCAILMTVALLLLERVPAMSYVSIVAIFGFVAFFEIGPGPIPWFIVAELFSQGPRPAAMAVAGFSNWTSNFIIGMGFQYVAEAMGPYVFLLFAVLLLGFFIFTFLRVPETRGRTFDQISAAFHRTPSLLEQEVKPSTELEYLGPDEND
# Procedure: CHOK1-SLC2A4 cells were generated by transfection of CHOK1 cells with pCMV6-Entry-GLUT4 (Origene #SC125240) using Lipofectamin2000 according to the supplier's instructions. Briefly, 1.5E5 cells/well CHOK1 cells were seeded in 6-well cell culture plates. After overnight incubation, DNA-lipid complexes (2 μg plasmid DNA, DNA:lipid ratio 1:10) were prepared in OptiMEM and then added to the cells. After 5 days incubation, 800 μg G418 was added to the culture medium to generate a stable polyclone. For monoclone selection, single cells were re-plated in 96-well plates, expanded and selected by transgene overexpression and functional performance.
# as §1, §2, §3, §4
# GLUT2 = molecular target: T4, GLUT2 (Homo sapiens, UniProt P11168); assay: GLUT2 transporter activity assay in CHO-hGLUT2 cells (indirect, intracellular ATP levels); conditions: CHO-hGLUT2 cell line; read-out: GLUT2 inhibitory activity (IC50)
# T4 sequence (P11168 1-524): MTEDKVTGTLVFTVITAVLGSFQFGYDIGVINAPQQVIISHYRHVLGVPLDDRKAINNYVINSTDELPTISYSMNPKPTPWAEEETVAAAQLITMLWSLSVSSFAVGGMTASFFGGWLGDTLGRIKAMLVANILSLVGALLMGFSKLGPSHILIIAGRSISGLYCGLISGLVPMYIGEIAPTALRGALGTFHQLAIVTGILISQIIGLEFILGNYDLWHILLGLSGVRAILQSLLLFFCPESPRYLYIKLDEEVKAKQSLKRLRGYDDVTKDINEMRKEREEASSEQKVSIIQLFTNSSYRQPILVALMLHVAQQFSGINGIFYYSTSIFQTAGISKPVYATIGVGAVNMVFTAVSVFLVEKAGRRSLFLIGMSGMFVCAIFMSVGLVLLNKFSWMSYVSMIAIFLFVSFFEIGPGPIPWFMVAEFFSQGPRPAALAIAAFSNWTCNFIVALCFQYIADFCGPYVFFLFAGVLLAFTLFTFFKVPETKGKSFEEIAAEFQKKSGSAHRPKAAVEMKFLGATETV
# Description: as §1, §2
# Example 8-3: Indirect Measurement of GLUT2 (SLC2A2) Activity by Quantification of Intracellular ATP Levels
# A combination of small-molecule inhibitors of mitochondrial electron transport chain and glucose catabolism synergistically suppress ATP production and impair cellular viability (Ulanovskaya et al., 2008, 2011; Liu, et al. 2001). We therefore used CHOK1 cells overexpressing SLC2A2 (CHOK1-SLC2A2) in combination with an oxidative phosphorylation inhibitor (Rotenon) to identify GLUT2 inhibitors. CHOK1-SLC2A2 cells were purchased from creative biogene (catNo: CSC-SC014484) and maintained in RPMI1640 supplemented with 10% FBS and 2 mM L-Glutamine. For the Glut2-ATP-Assay, 7,500 cells were seeded in black, clear bottom 384-well plates directly in glucose- and phenolred-free RPMI1640 medium supplemented with 1% FCS and 2 mM L-glutamine and cultured overnight to reduce intracellular ATP levels. Next day, cells were washed and incubated with […] and compounds or DMSO and 2.5 mM fructose in glucose- and phenolred-free RPMI1640 medium for 40 min. The CellTiter-Glo® Luminescence Viability Assay from Promega was used to measure ATP levels. Luminescence was measured with a Victor Multilabel plate reader (Perkin Elmer). Blank values were subtracted from all readings and values were normalized to the DMSO control.
IC50 (GLUT1) [µM],IC50 (GLUT3) [µM],IC50 (GLUT4) [µM],IC50 (GLUT2) [µM],Compound
1 to 4,1 to 4,10 to 25,> 25,"CC12CC(NC(=O)N1c1cccc(C(=O)NCCOc3ccccc3)c1)c1cccc(OCc3ccccc3)c1O2 (stereo not shown) [Compound A21, 3-(10-(benzyloxy)-2-methyl-4-oxo-5,6-dihydro-2H-2,6-methanobenzo[g][1,3,5]oxadiazocin-3(4H)-yl)-N-(2-phenoxyethyl)benzamide]"
0.3 to 1,0.3 to 1,4 to 10,> 25,"Cc1ccc(CCN(C)C(=O)c2cccc(N3C(=O)NC4CC3(C)Oc3c(OCc5ccccc5)cccc34)c2)cc1 (stereo not shown) [Compound A23, 3-(10-(benzyloxy)-2-methyl-4-oxo-5,6-dihydro-2H-2,6-methanobenzo[g][1,3,5]oxadiazocin-3(4H)-yl)-N-methyl-N-(4-methylphenethyl)benzamide]"
0.3 to 1,0.3 to 1,1 to 4,> 25,"CC12CC(NC(=O)N1c1cccc(C(=O)NCCCc3ccccc3)c1)c1cccc(OCc3ccccc3)c1O2 (stereo not shown) [Compound A33, 3-(10-(benzyloxy)-2-methyl-4-oxo-5,6-dihydro-2H-2,6-methanobenzo[g][1,3,5]oxadiazocin-3(4H)-yl)-N-(3-phenylpropyl)benzamide]"
10 to 25,4 to 10,10 to 25,,"CC12CC(NC(=O)N1c1cccc(C(=O)NCc3ccccc3)c1)c1cccc(OCc3ccccc3)c1O2 (stereo not shown) [Compound A39, 3-(10-(benzyloxy)-2-methyl-4-oxo-5,6-dihydro-2H-2,6-methanobenzo[g][1,3,5]oxadiazocin-3(4H)-yl)-N-(benzyl)benzamide]"

# Second part, the molecule before the results:
Compound,IC50 (GLUT1) [µM],IC50 (GLUT3) [µM],IC50 (GLUT4) [µM],IC50 (GLUT2) [µM]
"Cc1ccc(CCNC(=O)c2cccc(N3C(=O)NC4CC3(C)Oc3c(OCc5ccccc5)cccc34)c2)cc1 (stereo not shown) [Compound A01, 3-(10-(Benzyloxy)-2-methyl-4-oxo-5,6-dihydro-2H-2,6-methanobenzo[g][1,3,5]oxadiazocin-3(4H)-yl)-N-(4-methylphenethyl)benzamide]",≤ 0.3,≤ 0.3,10 to 25,10 to 25
"Cc1ccc(CCNC(=O)c2cccc(N3C(=O)NC4CC3(C)Oc3c(OCc5cccnc5)cccc34)c2)cc1 (stereo not shown) [Compound A10, 3-(2-Methyl-4-oxo-10-(pyridin-3-ylmethoxy)-5,6-dihydro-2H-2,6-methanobenzo[g][1,3,5]oxadiazocin-3(4H)-yl)-N-(4-methylphenethyl)benzamide]",≤ 0.3,0.3 to 1,4 to 10,4 to 10
"Cc1ccc(CCNC(=O)c2cccc(N3C(=O)NC4CC3(C)Oc3c(OCc5ccccn5)cccc34)c2)cc1 (stereo not shown) [Compound A11, 3-(2-Methyl-4-oxo-10-(pyridin-2-ylmethoxy)-5,6-dihydro-2H-2,6-methanobenzo[g][1,3,5]oxadiazocin-3(4H)-yl)-N-(4-methylphenethyl)benzamide]",≤ 0.3,≤ 0.3,1 to 4,4 to 10
"Cc1ccc(CCNC(=O)c2cccc(N3C(=O)NC4CC3(C)Oc3c(OCc5c(C)noc5C)cccc34)c2)cc1 (stereo not shown) [Compound A15, 3-(10-((3,5-Dimethylisoxazol-4-yl)methoxy)-2-methyl-4-oxo-5,6-dihydro-2H-2,6-methanobenzo[g][1,3,5]oxadiazocin-3(4H)-yl)-N-(4-methylphenethyl)benzamide]",0.3 to 1,0.3 to 1,4 to 10,10 to 25
"Cc1ccc(CCNC(=O)c2cccc(N3C(=O)NC4CC3(C)Oc3c(OCc5nccn5C)cccc34)c2)cc1 (stereo not shown) [Compound A16, 3-(2-Methyl-10-((1-methyl-1H-imidazol-2-yl)methoxy)-4-oxo-5,6-dihydro-2H-2,6-methanobenzo[g][1,3,5]oxadiazocin-3(4H)-yl)-N-(4-methylphenethyl)benzamide]",1 to 4,,> 25,> 25
